Reference: paper PMC6593445, “Promiscuous terpene synthases from Prunella vulgaris highlight the importance of substrate and compartment switching in terpene synthase evolution” (The New Phytologist, 2019)

What was measured:
Assay in all cases: in vitro TPS assay, GC-MS of products
Type in all cases: biochemical
Conditions in all cases: 10 mM MgCl2, 100 mM KCl, 5 mM DTT, 50 mM HEPES pH 7.2, 30 °C, 4 h
[1] = target: T1, PvTPS4 (Prunella vulgaris, UniProt A0A3S8D7W5)
T1 construct: full length, cytosolic (no transit peptide); pET28b+, E. coli C41, Ni-NTA purified; TPS-a subfamily
T1 sequence (A0A3S8D7W5 entry or part of it): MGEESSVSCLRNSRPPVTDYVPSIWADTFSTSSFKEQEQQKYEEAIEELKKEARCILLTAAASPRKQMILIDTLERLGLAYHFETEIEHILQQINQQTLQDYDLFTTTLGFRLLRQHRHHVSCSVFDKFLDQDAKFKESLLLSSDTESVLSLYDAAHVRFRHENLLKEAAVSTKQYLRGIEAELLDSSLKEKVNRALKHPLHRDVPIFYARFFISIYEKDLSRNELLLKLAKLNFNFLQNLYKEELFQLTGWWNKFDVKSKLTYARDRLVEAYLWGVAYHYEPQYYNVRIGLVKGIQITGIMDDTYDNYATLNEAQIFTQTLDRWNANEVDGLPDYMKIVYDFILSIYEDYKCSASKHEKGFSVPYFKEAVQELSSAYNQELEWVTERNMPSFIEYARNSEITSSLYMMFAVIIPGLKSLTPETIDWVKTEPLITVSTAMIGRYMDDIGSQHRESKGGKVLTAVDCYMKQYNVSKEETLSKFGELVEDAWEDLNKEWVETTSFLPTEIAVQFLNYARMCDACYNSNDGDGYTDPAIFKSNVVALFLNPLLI

[2] = target: T2, PvHVS (Prunella vulgaris, UniProt A0A3Q8J789)
T2 construct: N-terminal truncation removing 43 aa predicted plastid transit peptide; pET28b+, E. coli C41, Ni-NTA purified; TPS-a diterpene synthase
T2 sequence (A0A3Q8J789 44-599): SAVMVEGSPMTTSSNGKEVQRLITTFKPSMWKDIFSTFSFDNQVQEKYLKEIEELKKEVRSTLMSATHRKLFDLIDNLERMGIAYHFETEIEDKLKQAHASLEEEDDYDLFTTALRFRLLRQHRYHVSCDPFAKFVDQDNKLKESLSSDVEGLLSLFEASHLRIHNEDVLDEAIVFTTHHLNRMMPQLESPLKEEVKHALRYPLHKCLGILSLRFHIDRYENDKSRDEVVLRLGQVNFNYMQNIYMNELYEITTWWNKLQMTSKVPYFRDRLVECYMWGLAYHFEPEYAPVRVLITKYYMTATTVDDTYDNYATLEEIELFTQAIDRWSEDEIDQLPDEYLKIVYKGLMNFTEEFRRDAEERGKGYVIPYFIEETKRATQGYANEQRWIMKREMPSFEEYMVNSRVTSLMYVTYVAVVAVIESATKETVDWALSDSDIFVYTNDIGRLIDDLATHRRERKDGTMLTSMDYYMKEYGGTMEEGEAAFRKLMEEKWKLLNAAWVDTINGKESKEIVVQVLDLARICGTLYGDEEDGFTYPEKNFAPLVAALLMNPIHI

[3] = target: T3, PvTPS2 (Prunella vulgaris, UniProt A0A3S8D7T7)
T3 construct: N-terminal truncation removing 48 aa predicted plastid transit peptide; pET28b+, E. coli C41, Ni-NTA purified; TPS-a subfamily
T3 sequence (A0A3S8D7T7 49-597): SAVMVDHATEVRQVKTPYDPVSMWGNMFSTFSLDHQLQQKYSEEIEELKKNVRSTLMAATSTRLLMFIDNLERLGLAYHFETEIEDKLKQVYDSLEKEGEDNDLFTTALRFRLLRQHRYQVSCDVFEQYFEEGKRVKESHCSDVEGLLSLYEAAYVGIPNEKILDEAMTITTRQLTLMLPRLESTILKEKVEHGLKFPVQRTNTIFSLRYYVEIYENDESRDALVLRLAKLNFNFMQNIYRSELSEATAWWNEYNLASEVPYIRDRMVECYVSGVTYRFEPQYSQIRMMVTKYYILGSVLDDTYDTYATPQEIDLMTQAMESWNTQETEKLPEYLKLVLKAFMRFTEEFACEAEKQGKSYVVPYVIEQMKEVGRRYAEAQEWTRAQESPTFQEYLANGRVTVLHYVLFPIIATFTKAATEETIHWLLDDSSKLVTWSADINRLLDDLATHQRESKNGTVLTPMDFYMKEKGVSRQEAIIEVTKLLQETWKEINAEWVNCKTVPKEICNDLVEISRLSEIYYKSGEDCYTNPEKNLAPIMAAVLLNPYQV

[4] = target: T4, PvTPS5 (Prunella vulgaris, UniProt A0A3S8D7W9)
T4 construct: full length, cytosolic (no transit peptide); pET28b+, E. coli C41, Ni-NTA purified; TPS-a subfamily
T4 sequence (A0A3S8D7W9 1-555): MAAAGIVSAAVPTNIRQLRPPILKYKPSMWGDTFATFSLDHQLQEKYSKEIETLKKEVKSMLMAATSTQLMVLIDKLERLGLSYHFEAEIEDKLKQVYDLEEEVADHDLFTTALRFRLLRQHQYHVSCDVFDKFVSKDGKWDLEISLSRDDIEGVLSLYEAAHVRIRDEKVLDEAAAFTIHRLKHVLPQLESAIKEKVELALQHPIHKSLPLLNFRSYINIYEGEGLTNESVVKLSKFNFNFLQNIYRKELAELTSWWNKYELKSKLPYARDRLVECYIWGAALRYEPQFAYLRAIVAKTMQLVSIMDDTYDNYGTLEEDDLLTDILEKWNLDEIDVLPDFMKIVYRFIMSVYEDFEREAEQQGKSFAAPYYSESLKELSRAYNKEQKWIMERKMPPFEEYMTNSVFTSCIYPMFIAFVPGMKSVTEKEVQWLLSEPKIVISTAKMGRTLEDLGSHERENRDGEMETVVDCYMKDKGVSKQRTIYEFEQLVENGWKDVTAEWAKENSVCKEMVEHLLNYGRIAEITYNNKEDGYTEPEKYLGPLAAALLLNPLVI

SMILES	in vitro TPS assay, GC-MS of products [1]	in vitro TPS assay, GC-MS of products [2]	in vitro TPS assay, GC-MS of products [3]	in vitro TPS assay, GC-MS of products [4]
CC(C)=CCC/C(C)=C/CC/C(C)=C/COP(=O)(O)OP(=O)(O)O [(E,E)‐FPP]	All four enzymes were active against (E,E)‐FPP both in vitro, and in N. benthamiana	All four enzymes were active against (E,E)‐FPP both in vitro, and in N. benthamiana	All four enzymes were active against (E,E)‐FPP both in vitro, and in N. benthamiana	All four enzymes were active against (E,E)‐FPP both in vitro, and in N. benthamiana
CC(C)=CCC/C(C)=C/CC/C(C)=C/CC/C(C)=C/COP(=O)(O)OP(=O)(O)O [GGPP]	–	Only PvTPS2 and PvHVS were active in vitro and in N. benthamiana against GGPP	Only PvTPS2 and PvHVS were active in vitro and in N. benthamiana against GGPP	–
CC(C)=CCC/C(C)=C\COP(=O)(O)OP(=O)(O)O [NPP]	all four enzymes were found to catalyse cyclisation of NPP	–	–	all four enzymes were found to catalyse cyclisation of NPP
